What was measured:
Assay in all cases: relative viability (nuclei count vs DMSO), 5 days (fraction); higher = more cells survive
NCI-H520 = tested on: NCI-H520
Method in brief: (§1)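 For relative viability, nuclei counts in treated wells were divided by those in vehicle wells. Lung cancer cell lines had been pin-tool dosed in 1536-well plates the day after seeding and cultured for 5 days, then fixed and stained in one step (final 0.05% Triton X-100, 1% formaldehyde, 1 ug/ml Hoechst) and imaged at 4×. Doses were one drug alone or a fixed anchor-drug dose plus five library-drug doses (not always all listed) in √10 steps, and values are duplicate-plate medians.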

Calu-6 = tested on: Calu-6
Method in brief: as §1

EBC-1 = tested on: EBC-1
Method in brief: as §1

IA-LM = tested on: IA-LM
Method in brief: as §1

NCI-H1355 = tested on: NCI-H1355
Method in brief: as §1

NCI-H1703 = tested on: NCI-H1703
Method in brief: as §1

NCI-H1299 = tested on: NCI-H1299
Method in brief: as §1

A549 = tested on: A549
Method in brief: as §1

LCLC-103H = tested on: LCLC-103H
Method in brief: as §1

`Oc1nc(-c2ccc(C(F)(F)F)cc2)nc2c1CSCC2` [XAV939] + CS(=O)(=O)CCNCc1ccc(-c2ccc3ncnc(Nc4ccc(OCc5cccc(F)c5)c(Cl)c4)c3c2)o1 [Lapatinib] (partner 2 µM) was tested, and the relative viability (NCI-H520; first compound 0.08 µM) was 0.83, the relative viability (NCI-H520; first compound 0.253 µM) was 0.78 and the relative viability (NCI-H520; first compound 0.8 µM) was 0.792. The relative viability (NCI-H520; first compound 2.53 µM) was 0.682, the relative viability (Calu-6; first compound 0.08 µM) was 1.08 and the relative viability (Calu-6; first compound 0.253 µM) was 0.945. It also gave a relative viability (Calu-6; first compound 0.8 µM) of 0.991, a relative viability (Calu-6; first compound 2.53 µM) of 0.903 and a relative viability (EBC-1; first compound 0.08 µM) of 0.206. For the same molecule, the relative viability (EBC-1; first compound 0.253 µM) was 0.205, the relative viability (EBC-1; first compound 0.8 µM) was 0.218 and the relative viability (EBC-1; first compound 2.53 µM) was 0.209. It also gave a relative viability (IA-LM; first compound 0.08 µM) of 0.901, a relative viability (IA-LM; first compound 0.253 µM) of 0.64 and a relative viability (IA-LM; first compound 0.8 µM) of 0.687. The relative viability (IA-LM; first compound 2.53 µM) was 0.483, the relative viability (NCI-H1355; first compound 0.08 µM) was 1.02 and the relative viability (NCI-H1355; first compound 0.253 µM) was 0.857. For the same molecule, the relative viability (NCI-H1355; first compound 0.8 µM) was 0.875, the relative viability (NCI-H1355; first compound 2.53 µM) was 0.729 and the relative viability (NCI-H1703; first compound 0.08 µM) was 1.21. It also gave a relative viability (NCI-H1703; first compound 0.253 µM) of 1.08, a relative viability (NCI-H1703; first compound 0.8 µM) of 1.15 and a relative viability (NCI-H1703; first compound 2.53 µM) of 0.959. It also gave a relative viability (NCI-H1299; first compound 0.08 µM) of 0.989, a relative viability (NCI-H1299; first compound 0.253 µM) of 1.01 and a relative viability (NCI-H1299; first compound 0.8 µM) of 0.962. The relative viability (NCI-H1299; first compound 2.53 µM) was 0.97, the relative viability (A549; first compound 0.08 µM) was 1.1 and the relative viability (A549; first compound 0.253 µM) was 0.985. It also gave a relative viability (A549; first compound 0.8 µM) of 0.897 and a relative viability (A549; first compound 2.53 µM) of 0.765.

`Oc1nc(-c2ccc(C(F)(F)F)cc2)nc2c1CSCC2` [XAV939] + CC(C)C[C@H](NC(=O)[C@H](Cc1ccccc1)NC(=O)c1cnccn1)B(O)O [Bortezomib] (partner 0.002 µM) was tested, and the relative viability (LCLC-103H; first compound 0.08 µM) was 0.936, the relative viability (LCLC-103H; first compound 0.253 µM) was 1.11 and the relative viability (LCLC-103H; first compound 0.8 µM) was 0.861. It also gave a relative viability (LCLC-103H; first compound 2.53 µM) of 1.01, a relative viability (NCI-H520; first compound 0.08 µM) of 0.612 and a relative viability (NCI-H520; first compound 0.253 µM) of 0.317. It also gave a relative viability (NCI-H520; first compound 0.8 µM) of 0.659, a relative viability (NCI-H520; first compound 2.53 µM) of 0.368 and a relative viability (Calu-6; first compound 0.08 µM) of 0.936. It also gave a relative viability (Calu-6; first compound 0.253 µM) of 0.978, a relative viability (Calu-6; first compound 0.8 µM) of 1.05 and a relative viability (Calu-6; first compound 2.53 µM) of 0.978. It also gave a relative viability (EBC-1; first compound 0.08 µM) of 0.589, a relative viability (EBC-1; first compound 0.253 µM) of 0.478 and a relative viability (EBC-1; first compound 0.8 µM) of 0.584. It also gave a relative viability (EBC-1; first compound 2.53 µM) of 0.476, a relative viability (IA-LM; first compound 0.08 µM) of 0.736 and a relative viability (IA-LM; first compound 0.253 µM) of 0.617. It also gave a relative viability (IA-LM; first compound 0.8 µM) of 0.607, a relative viability (IA-LM; first compound 2.53 µM) of 0.487 and a relative viability (NCI-H1355; first compound 0.08 µM) of 1.17. It also gave a relative viability (NCI-H1355; first compound 0.253 µM) of 1.06, a relative viability (NCI-H1355; first compound 0.8 µM) of 1.21 and a relative viability (NCI-H1355; first compound 2.53 µM) of 0.81. For the same molecule, the relative viability (NCI-H1703; first compound 0.08 µM) was 0.451, the relative viability (NCI-H1703; first compound 0.253 µM) was 0.417 and the relative viability (NCI-H1703; first compound 0.8 µM) was 0.293. For the same molecule, the relative viability (NCI-H1703; first compound 2.53 µM) was 0.285, the relative viability (NCI-H1299; first compound 0.08 µM) was 1.06 and the relative viability (NCI-H1299; first compound 0.253 µM) was 0.996. For the same molecule, the relative viability (NCI-H1299; first compound 0.8 µM) was 1.07 and the relative viability (NCI-H1299; first compound 2.53 µM) was 1.05.

In the case of `O=C(O)c1ccc(-c2c[nH]c3ncc(-c4ccccc4)cc23)cc1C1CCCC1` + CC1(C)CCC(c2ccc(Cl)cc2)=C(CN2CCN(c3ccc(C(=O)NS(=O)(=O)c4ccc(N[C@H](CCN5CCOCC5)CSc5ccccc5)c(S(=O)(=O)C(F)(F)F)c4)cc3)CC2)C1 [Navitoclax] (partner 0.5 µM), the relative viability (NCI-H520; first compound 0.04 µM) is reported as 1.1, the relative viability (NCI-H520; first compound 0.1265 µM) is reported as 1.08 and the relative viability (NCI-H520; first compound 0.4 µM) is reported as 1.18. For the same molecule, the relative viability (NCI-H520; first compound 1.265 µM) was 0.836, the relative viability (Calu-6; first compound 0.04 µM) was 0.821 and the relative viability (Calu-6; first compound 0.1265 µM) was 0.732. It also gave a relative viability (Calu-6; first compound 0.4 µM) of 0.719, a relative viability (Calu-6; first compound 1.265 µM) of 0.55 and a relative viability (EBC-1; first compound 0.04 µM) of 0.475. For the same molecule, the relative viability (EBC-1; first compound 0.1265 µM) was 0.404, the relative viability (EBC-1; first compound 0.4 µM) was 0.352 and the relative viability (EBC-1; first compound 1.265 µM) was 0.279. It also gave a relative viability (IA-LM; first compound 0.04 µM) of 0.925, a relative viability (IA-LM; first compound 0.1265 µM) of 0.829 and a relative viability (IA-LM; first compound 0.4 µM) of 0.89. The relative viability (IA-LM; first compound 1.265 µM) was 0.576, the relative viability (NCI-H1355; first compound 0.04 µM) was 0.995 and the relative viability (NCI-H1355; first compound 0.1265 µM) was 0.957. The relative viability (NCI-H1355; first compound 0.4 µM) was 1.03, the relative viability (NCI-H1355; first compound 1.265 µM) was 0.683 and the relative viability (NCI-H1703; first compound 0.1265 µM) was 1.11. For the same molecule, the relative viability (NCI-H1703; first compound 0.4 µM) was 1.03, the relative viability (NCI-H1703; first compound 1.265 µM) was 1.11 and the relative viability (NCI-H1299; first compound 0.04 µM) was 1.07. For the same molecule, the relative viability (NCI-H1299; first compound 0.1265 µM) was 1.08, the relative viability (NCI-H1299; first compound 0.4 µM) was 1.02 and the relative viability (NCI-H1299; first compound 1.265 µM) was 0.942. It also gave a relative viability (A549; first compound 0.04 µM) of 1.09, a relative viability (A549; first compound 0.1265 µM) of 1.24 and a relative viability (A549; first compound 0.4 µM) of 1.17. The relative viability (A549; first compound 1.265 µM) was 0.939.

Source: the supplement of paper PMC10307832
